Measurements taken from US10066272B2, “Human homeobox gene ventx and macrophage terminal differentiation and activation, compositions and methods thereof” (priority 2011, dated 2018).

Columns and labels:
Type in all cases: cell-based, human
VentX = VentX expression during cytokine-induced monocyte to macrophage differentiation (RT-PCR, western blot); conditions: monocytes cultured with cytokine at 100 ng/ml (FIG. 1B)
Description: (B) VentX expression during monocyte to macrophage differentiation in vitro. Monocytes were cultured in the presence of M-CSF (M), GM-CSF (GM) or IL3 for indicated days or in the absence of cytokines for 3 days. […] VentX expression in freshly isolated monocytes was used as baseline control (Day 0). […] (D) Time course of VentX expression during in vitro induction of monocytes differentiation into macrophages. Monocytes were subjected to M-CSF treatment in vitro for indicated time. The VentX mRNA levels were determined by quantitative PCR for up to 7 days.
Peripheral blood mononuclear cells (PBMC) from healthy adult donors at Children's Hospital Boston were isolated by Ficoll density gradient centrifugation. […] CD14^+ monocytes were purified from PBMCs using anti-CD14-coated microbeads (Miltenyi Biotec). The purity of freshly isolated CD14^+ monocytes was more than 95% as analyzed by flow cytometry. Monocytes were cultured in 12-well plates at 1×10^6 cells/ml with RPMI 1640 medium containing 10% fetal bovine serum (FBS). […]
Total RNA was isolated by the TRIzol reagent, and an equal amount of RNA was used for first-strand cDNA synthesis with SuperScript III First-Strand Synthesis System (Invitrogen) according to the manufacturer's protocol. […] Quantitative measurement of VentX and cytokines cDNA were performed with SYBR Green on a LightCycler® (480 Real-Time PCR System; Roche).

primary monocytes = assay: Monocyte to macrophage differentiation after siRNA transfection, surface markers by FACS; conditions: monocytes, 100 ng/mL M-CSF, 4 days after transfection (FIG. 12)
Description: (A) knockdown of VentX expression in primary monocytes by RNA interference. Monocytes were transfected with siRNA against GFP or VentX through electroporation. VentX mRNA levels were determined by real time PCR at 3 days after transfection (left); VentX protein level was determined by western blotting at 4 days after transfection (right). (B) Effects of VentX knockdown on macrophage morphogenesis during M-CSF induced differentiation. Monocytes were transfected with either siGFP or siVentX and subsequently exposed to 100 ng/mL M-CSF. […] Magnification of photographs, ×200. Note: a portion of cells lost their original morphology during Wright-Giemsa staining procedure. (C) Effects of VentX knockdown on macrophage surface expression of CD71. […] Filled blue histogram represents the isotope control staining; red histogram represents monocytes transfected with siGFP; green histogram represents monocytes transfected with siVentX. (D) Bar graphs show mean+SD of 6 different experiments in (C). Paired t test was used to reveal the statistical significance. **p<0.01.
(A) Left panel: Flow cytometry analysis of indicated surface markers in monocytes transfected with siGFP or siVentX, respectively; right panel: bar graphs show the mean+SD of at least three separate experiments. *p<0.05; **p<0.01. (B) Effects of VentX knockdown on macrophage viability. Monocytes were transfected with either siGFP or siVentX and subsequently exposed to 100 ng/mL M-CSF for 3 days. Cells were then harvested and stained with PI and Annexin V and analyzed by flow cytometry. (C) Effects of VentX knockdown on phagocytosis. Monocytes were transfected with siGFP or siVentX. Phagocytosis assays were carried out as described in materials and methods. […]
Surface expression of CD71 was determined by FACS analysis at 4 days after siRNA transfection. […]
Peripheral blood mononuclear cells (PBMC) from healthy adult donors at Children's Hospital Boston were isolated by Ficoll density gradient centrifugation. […] The purity of freshly isolated CD14^+ monocytes was more than 95% as analyzed by flow cytometry. […]

[1] = system: cytokine mRNA expression in macrophages; assay: Effects of VentX knockdown on cytokine mRNA expression in macrophages (real-time PCR); parameters: unit not given here; conditions: macrophages transfected with siRNA; classical activation by LPS plus IFN-γ
Description: Macrophages were generated through incubation of freshly isolated monocytes with 100 ng/mL M-CSF for 4 days. These macrophages were then transfected with siGFP or siVentX, respectively, and further cultured in RPMI 1640 medium for additional 3 days. Thereafter, cells were exposed to 1 μg/mL LPS plus 20 ng/mL γ-IFN for 6 hours. (A) Surface staining of CD40, CD80, CD86 and HLA-DR and intracellular staining of TNF-α and IL1-β were analyzed by flow cytometry. (B) Secreted TNF-α, IL1-β and IL12p70 from culture supernatants were determined with ELISA kits. (C) Reactive oxygen species (ROS) from siGFP or siVentX transfected macrophages were analyzed with fluorescence microscope (left) and flow cytometry (middle). […] (D) Nitrate level from siGFP and siVentX transfected macrophages. Data represent mean+SD of three different experiments. (E) Phagocytosis of siGFP and siVentX transfected macrophage. Red histogram represents transfection with siGFP; green histogram represents transfection with siVentX. Left panel: cells were incubated on ice; right panel: cells were incubated at 37° C. (F) Effects of VentX knockdown on mixed lymphocyte reaction. Irradiated macrophages that had been transfected with siGFP or siVentX were utilized to stimulate allogenic naïve CD4 T cells proliferation. The proliferation rates were represented by counts per minute (CPM). […] Statistically significant difference (p<0.05) was observed when 4×10^2 or 2×10^3 cells were added.
(Martinez, et al. 2008 Front Biosci 13:453-461; Mosser, et al. 2008 Nat Rev Immunol 8:958-969.) To investigate whether VentX is required for classical activation of macrophages, a loss-of-function approach by knockdown of VentX was used.
Human primary monocytes were transfected using the Human Monocyte Nucleofector Kit (Lonza) according to the manufacturer's instructions. Briefly, 5×10^6monocytes were resuspended into 100 μl nucleofector solution with 0.5 nmol of either VentX siRNA (forward: 5′-[…]-3′ (SEQ ID NO:4); reverse: 5′-[…]-3′ (SEQ ID NO:5)) or non-effective GFP siRNA (forward: 5′-[…]-3′ (SEQ ID NO:6); 5′-reverse: […]-3′ (SEQ ID NO:7)) before electroporation with nucleofector II Device (Lonza). Cells were then immediately removed from the device and incubated overnight with 1 ml pre-warmed Human Monocyte Nucleofector Medium containing 2 mM glutamine and 10% FBS. Cells were then resuspended into complete RPMI medium and treated with appropriate cytokines to induce differentiation into macrophages. Similarly, macrophages derived from monocytes were transfected with Human Macrophage Nucleofector Kit (Lonza) following the manufacturer's instructions.
Total RNA was isolated by the TRIzol reagent, and an equal amount of RNA was used for first-strand cDNA synthesis with SuperScript III First-Strand Synthesis System (Invitrogen) according to the manufacturer's protocol. To amplify VentX cDNA with conventional PCR, AccuPrime™ Taq DNA polymerase system (Invitrogen) was used following the manufacturer's instructions. PCR products were separated on 2% agarose gels and stained with ethidium bromide. GAPDH was used as an internal control. Quantitative measurement of VentX and cytokines cDNA were performed with SYBR Green on a LightCycler® (480 Real-Time PCR System; Roche). The primers used are listed in the Sequence Listing (SEQ ID NOs: 24-109).

Question: “GM-CSF: granulocyte macrophage colony-stimulating factor, purchased from PeproTech” was tested. Which “VentX expression during monocyte to macrophage differentiation” value (VentX) did it give?
Answer: The value was “up-regulated”.

Question: Which “surface expression of CD71 and other markers” value (primary monocytes) does the source give for “VentX siRNA-2: second siRNA sequence against VentX, 5′-UCUACUCAACGUCUUCUGGCCUUGCCAAU-3′ (SEQ ID NO:3) (listed as RNA, chemistry not given here)” here?
Answer: Its value is “down-regulated”.

Question: Which “IL1-β cytokine mRNA expression” value [1] does the source give for “siGFP: non-effective GFP siRNA, forward 5′-UGACCACCCUGACCUACGGCGUGCAGUGC-3′ (SEQ ID NO:6), reverse SEQ ID NO:7 (antisense GCACUGCACGCCGUAGGUCAGGGUGGUCA; listed as RNA, chemistry not given here) [reference compound]” here?
Answer: The value was 51.08 ± 3.2.

Question: What about the “IL6 cytokine mRNA expression” value [1] of the same molecule?
Answer: The value was 3.40 ± 0.21.

Question: What about the “IL8 cytokine mRNA expression” value [1] of the same molecule?
Answer: Its value is 471 ± 10.2.

Question: What about the “IL12p35 cytokine mRNA expression” value [1] of the same molecule?
Answer: The value was 1.77 ± 0.21.

Question: What about the “IL12p40 cytokine mRNA expression” value [1] of the same molecule?
Answer: The value was 0.52 ± 0.02.

Question: What about the “M-SCSF cytokine mRNA expression” value [1] of the same molecule?
Answer: The value was 0.40 ± 0.01.

Question: What about the “TNF-α cytokine mRNA expression” value [1] of the same molecule?
Answer: The value was 0.46 ± 0.04.

B1: M-CSF: macrophage colony-stimulating factor, purchased from PeproTech (protein, UniProt P09603 33-554, looked up)
Macrophage colony-stimulating …: EEVSEYCSHMIGSGHLQSLQRLIDSQMETSCQITFEFVDQEQLKDPVCYLKKAFLLVQDIMEDTMRFRDNTPNAIAIVQLQELSLRLKSCFTKDYEEHDKACVRTFYETPLQLLEKVKNVFNETKNLLDKDWNIFSKNCNNSFAECSSQDVVTKPDCNCLYPKAIPSSDPASVSPHQPLAPSMAPVAGLTWEDSEGTEGSSLLPGEQPLHTVDPGSAKQRPPRSTCQSFEPPETPVVKDSTIGGSPQPRPSVGAFNPGMEDILDSAMGTNWVPEEASGEASEIPVPQGTELSPSRPGGGSMQTEPARPSNFLSASSPLPASAKGQQPADVTGTALPRVGPVRPTGQDWNHTPQKTDHPSALLRDPPEPGSPRISSLRPQGLSNPSTLSAQPQLSRSHSSGSVLPLGELEGRRSTRDRRSPAEPEGGPASEGAARPLPRFNSVPLTDTGHERQSEGSFSPQLQESVFHLLVPSVILVLLAVGGLLFYRWRRRSHQEPQRADSPLEQPEGSPLTQDDRQVELPV
Question: B1 was tested. Which “VentX expression during monocyte to macrophage differentiation” value (VentX) did it give?
Answer: The value was “up-regulated”.
